This passage reports IC50 results from patent US20170014524A1, “AURISTATIN-ANTIBODY CONJUGATES AND USES THEREOF” (The California Institute for Biomedical Research, priority 2015, published 2017).

Structures are written as SMILES. Where a SMILES comes first, the peptide text is derived from it. [ ]: non-standard residue; d: D form. The star is where a group is joined. Dolaproine = CO[C@@H]([C@@H]1CCCN1)[C@@H](C)C(=O)O; Dil = CC[C@H](C)[C@H](NC)[C@@H](CC(=O)O)OC; Doe = c1ccc(C[C@H](N*)c2nccs2)cc1; NMeV = CN[C@H](C(=O)O)C(C)C

Common to all, as to type: cell-based
Common to all, as to settings: 600 nM to 30 pM, 4 days at 37° C.

For test [1], the system named is Jurkat (CXCR4+) cells. The test can be described thus: Cytotoxicity (CellTiter-Glo cell viability, 4 days) in Jurkat cells. How it is done:
(§1) Cell viabilities were measured by addition of CellTiter-Glo (Promega) and the luminescent signals were read by EnVision plate reader.
(§2) The following illustrative examples are representative of embodiments of the compositions and methods described herein and are not meant to be limiting in any way. All cell lines were purchased from ATCC unless otherwise stated. Ramos, Jurkat, OPM-2 cells were cultured in RPMI with 10% FBS and 100 U/mL Penicillin Streptomycin. MDA-MB-231 cells were cultured in DMEM (high glucose) with 10% FBS, 1 mM sodium pyruvate, and 100 U/mL Penicillin Streptomycin. SKBR-3 cells were cultured in DMEM with 10% FBS and 1x Antibiotic-Antimycotic (100 U/mL Penicillin Streptomycin, 0.25 μg/mL Fungizone). […]
(§3) Ramos (CXCR4+), Jurkat (CXCR4+), and MDA-MB-231 (CXCR4−) cells were treated with either small molecule drugs, anti-CXCR4 (SEQ ID NOS: 3, 4), or anti-CXCR4-auristatin conjugates with concentrations ranging from 600 nM to 30 pM for 4 days at 37° C. Cell viabilities were measured by addition of CellTiter-Glo (Promega) and the luminescent signals were read by EnVision plate reader.
(§4) Briefly, 1000 cells/well were seeded in a 384-well plate (45 uL/well with their corresponding media) and incubated at 37° C. overnight. […] Plates were shaken and incubated for at least 10 min before the generated luminescent signals were read using PerkinElmer EnVision Multilabel Reader.

Test [2] concerns Ramos (CXCR4+) cells. The test can be described thus: Cytotoxicity (CellTiter-Glo cell viability, 4 days) in Ramos cells. As to the method:
as §1, §2, §3, §4

Test [3] relates to MDA-MB-231 (CXCR4−) cells. The test can be described thus: Cytotoxicity (CellTiter-Glo cell viability, 4 days) in MDA-MB-231 cells. How it is done:
as §1, §2, §3, §4

On to `CC[C@H](C)[C@@H]([C@@H](CC(=O)N1CCC[C@H]1[C@H](OC)[C@@H](C)C(=O)N[C@@H](Cc1ccccc1)c1nccs1)OC)N(C)C(=O)[C@@H](NC(=O)[C@@H](NC)C(C)C)C(C)C` [MMAD, monomethyl auristatin D] (H-[NMeV]V[Dil][Dolaproine]-Doe), for which the IC50 (in general, the point on the concentration scale where inhibition reaches its midpoint) in test [1] amounted to 2.8 nM; in test [2] it was 1.4 nM; in test [3] it was 5.2 nM.
